Test results reported in BindingDB's records for doi:10.3109/14756366.2011.637202 (Agri Ibrahim Cecen University, 2012).

Key:
Experiment in all cases: Esterase Activity Assay
Carbonic anhydrase 2 = Carbonic anhydrase 2 (Homo sapiens, UniProt P00918)
Carbonic anhydrase 4 = Carbonic anhydrase 4 (Homo sapiens, UniProt P22748)
Carbonic anhydrase 6 = Carbonic anhydrase 6 (Homo sapiens, UniProt P23280)
Carbonic anhydrase 1 = Carbonic anhydrase 1 (Homo sapiens, UniProt P00915)
Chain of Carbonic anhydrase 1 (P00915 whole entry): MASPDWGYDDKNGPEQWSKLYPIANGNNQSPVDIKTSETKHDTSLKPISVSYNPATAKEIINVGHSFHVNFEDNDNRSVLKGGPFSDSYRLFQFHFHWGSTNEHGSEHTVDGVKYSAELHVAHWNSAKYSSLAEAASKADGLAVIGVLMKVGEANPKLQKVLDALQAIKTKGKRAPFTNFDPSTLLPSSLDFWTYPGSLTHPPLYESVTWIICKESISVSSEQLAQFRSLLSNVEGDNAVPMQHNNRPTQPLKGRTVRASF

Chain of Carbonic anhydrase 6 (P23280 whole entry): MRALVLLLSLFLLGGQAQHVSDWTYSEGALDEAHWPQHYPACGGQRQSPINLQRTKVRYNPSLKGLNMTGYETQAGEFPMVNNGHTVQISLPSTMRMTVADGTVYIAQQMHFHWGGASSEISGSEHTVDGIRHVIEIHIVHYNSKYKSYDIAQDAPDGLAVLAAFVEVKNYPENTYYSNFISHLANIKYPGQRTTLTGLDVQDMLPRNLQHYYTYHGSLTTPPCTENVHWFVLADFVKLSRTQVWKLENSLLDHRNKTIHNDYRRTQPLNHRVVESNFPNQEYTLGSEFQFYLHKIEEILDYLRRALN
Chain of Carbonic anhydrase 4 (P22748 whole entry): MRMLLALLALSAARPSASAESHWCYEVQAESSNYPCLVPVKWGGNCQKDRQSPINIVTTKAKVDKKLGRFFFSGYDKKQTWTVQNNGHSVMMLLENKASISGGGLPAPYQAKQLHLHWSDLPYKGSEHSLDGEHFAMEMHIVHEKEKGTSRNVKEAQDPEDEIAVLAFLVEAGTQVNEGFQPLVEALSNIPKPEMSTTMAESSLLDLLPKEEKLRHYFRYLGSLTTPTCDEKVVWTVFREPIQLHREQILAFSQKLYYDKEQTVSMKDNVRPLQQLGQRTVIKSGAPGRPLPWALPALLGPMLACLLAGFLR

SMILES	Ki (Carbonic anhydrase 2) [µM]	Ki (Carbonic anhydrase 4) [µM]	Ki (Carbonic anhydrase 6) [µM]	Ki (Carbonic anhydrase 1) [µM]
Oc1ccccc1	5.6	9.7		
Oc1cccc(O)c1O	0.52	0.49	6.83	
CS(=O)(=O)Oc1ccccc1OS(C)(=O)=O [1,2-Phenylenedimethanesulfonate (13)]	28.5	41.6	313	196
CS(=O)(=O)Oc1ccc(OS(C)(=O)=O)cc1 [1,4-Phenylene dimethanesulfonate (6)]	4.23	9.12	28.4	22.1
COc1ccccc1O [1-Hydroxy-2-methoxybenzene]	2.98	3.56	217	
COc1cc(C=O)ccc1OS(C)(=O)=O [4-Formyl-2-methoxyphenyl methanesulfonate (15)]	6.45	8.14	12.1	79.1
Oc1ccc(-c2ccccc2)cc1 [4-Hydroxybiphenyl]	7.41	12.3	85	19.5
CS(=O)(=O)Oc1cccc(OS(C)(=O)=O)c1OS(C)(=O)=O [Benzene-1,2,3-triyltrimethanesulfonate (11)]	35.4	45.1	458	478
CS(=O)(=O)Oc1ccc(-c2ccccc2)cc1 [Biphenyl-4-ylmethanesulfonate (5)]	12.2	26.5	162	48.5
CS(=O)(=O)Oc1ccccc1 [Phenylmethanesulfonate (4)]	8.7	15.4	105	27.4
